According to ChEMBL document CHEMBL1131266, “Synthesis and pharmacological evaluation of new flosulide analogues, synthesized from natural safrole” (1998):

Assays:
[1] = test system: Rattus norvegicus; test: Percent inhibition of pleural inflammation in carrageenan-induced rat model was determined by comparing with vehicle control group when tested on 10 rats at peroral dose of 100 umol/Kg; type: functional; settings: po
[2] = test system: Rattus norvegicus; test: Percent inhibition of edema in carrageenan-induced rat paw edema was determined by comparing with vehicle control group when tested on 5 rats at peroral dose of 100 umol/Kg; type: functional; settings: po
[3] = test system: Rattus norvegicus; test: Percent inhibition of pleural inflammation in carrageenan-induced rat model was determined by comparing with vehicle control group when tested on 5 rats at peroral dose of 100 umol/Kg; type: functional; settings: po
[4] = test system: Rattus norvegicus; test: Percent inhibition of edema in carrageenan-induced rat paw edema was determined by comparing with vehicle control group when tested on 10 rats at peroral dose of 100 umol/Kg; type: functional; settings: po
[5] = test system: Rattus norvegicus; test: Percent inhibition of edema in carrageenan-induced rat paw edema was determined by comparing with vehicle control group when tested on 14 rats at peroral dose of 100 umol/Kg; Not significant; type: functional; settings: po
[6] = organism: Rattus norvegicus; test: animal or person; settings: po, read-out: Inhibition
Description: Percent inhibition of pleural inflammation in carrageenan-induced rat model was determined by comparing with vehicle control group when tested on 8 rats at peroral dose of 100 umol/Kg

Structure (SMILES)	inhibition in vivo at 100 µmol/kg [2] [%]	inhibition in vivo at 100 µmol/kg [3] [%]	other results
COc1ccc2c(c1)c(CC(=O)O)c(C)n2C(=O)c1ccc(Cl)cc1 [INDOMETHACIN]	85.4	–	inhibition in vivo at 100 µmol/kg [1]: 31.7%
CS(=O)(=O)Nc1cc2c(cc1Cc1ccccc1)OCO2	–	43.1	inhibition in vivo at 100 µmol/kg [4]: 21%
O=S(=O)(Nc1ccccc1)c1cc2c(cc1Cc1ccccc1)OCO2	27.2	24.6	–
CNS(=O)(=O)c1cc2c(cc1Cc1ccccc1)OCO2	–	46	inhibition in vivo at 100 µmol/kg [5]: 2.7%
CS(=O)(=O)Nc1cc2c(cc1Cc1cccc(C(F)(F)F)c1)OCO2	19.7	24.6	–
CS(=O)(=O)Nc1ccc([N+](=O)[O-])cc1Oc1ccccc1 [NIMESULIDE]	61.7	–	inhibition in vivo at 100 µmol/kg [6]: 29.9%
